Where “and” joins values, the source holds several entries; their conditions need not be identical. Equal entries are not always repeated. Where two headings read alike, the source gives them in different places. Marks after values point to notes of the source that are not given here.
Legend:
[1] = system: L1210/0; assay type: in vivo, mice
[2] = system: L1210/CPA; assay type: in vivo, mice
[3] = system: Lewis Lung Carcinoma; set-up: species or system mice; settings: mouse, in vivo
[4] = system: B16 Melanoma; set-up: species or system mice; settings: mouse, in vivo
[5] = system: P388/0; assay type: in vivo, mice
[6] = system: P388/CPA; assay type: in vivo, mice
[7] = system: 16/C Mammary Tumor; assay type: in vivo, mice
[8] = system: human lox-IMVI melanoma; assay type: in vivo, mice
[9] = system: human MX-1 mammary tumors; assay type: in vivo, mice
[10] = system: M5076 Sarcoma; test: SC implanted M5076 sarcoma; assay type: in vivo, mice; settings: days 11-15
[11] = Acute toxicity, three daily IV bolus injections in mice (IPM lysine salt, IPM parent control); assay type: in vivo; settings: 150 mg/kg IV daily × 3
Experimental: This example describes the evaluation of the acute toxicity of isophosphoramide mustard lysine salt, following three days of daily intravenous (bolus) injection in mice. This study consisted of two phases.
The second main study phase consisted of eight treatment groups (five mice/sex/group) that received the test article as a single daily dose for three consecutive days at respective dose levels of 50, 75, 100, 200, 300, 400, 500, and 600 mg/kg. An additional group (5 mice/sex) served as a parent compound control and received the isophosphoramide mustard parent compound in the same manner, at a dose level of 150 mg/kg. The vehicle was 0.9% sodium chloride for injection, USP and all doses were at a constant volume of 15 mL/kg.
Observations for mortality, morbidity, and the availability of food and water were conducted twice daily for all animals. Observations for clinical signs were conducted daily during the study (approximately one and four hours postdose on Days 1, 2, and 3, and once daily on non-dosing days). Body weights for all surviving animals were measured and recorded the second day after receipt, prior to randomization, and on Days-1 and 7. Body weights also were measured on all surviving main study phase animals on Day 14. Macroscopic evaluations were performed on each main study animal at necropsy (Day 15).
Eight main study treatment groups received the test article as a single daily dose for three consecutive days via intravenous (bolus) injection at respective dose levels of 50, 75, 100, 200, 300, 400, 500, and 600 mg/kg. An additional group (five mice/sex) served as a parent compound control and received the Isophosphoramide Mustard Parent Compound in the same manner at a dose level of 150 mg/kg. All doses were at a volume of 15 mL/kg and based on the most recent body weight.

[12] = Single dose oral toxicity of IPM in rats; assay type: in vivo; settings: for oral LD50: single dose
[13] = Single dose oral toxicity of IPM in mice; assay type: in vivo
[14] = Single dose intravenous toxicity of IPM in rats; assay type: in vivo
[15] = Single dose intravenous toxicity of IPM in mice; assay type: in vivo
[16] = Sub-acute IV (3-day) toxicity of IPM in mice; assay type: in vivo; settings: for dose with kidney tubular necrosis / dose with severe bone marrow depletion / intravenous LD10 / intravenous LD50: IV daily × 3 days
Text: Multiple daily dose Administrations—IV and IP—have been studied in mice and dogs. Sub-acute intravenous (3-day) dosing in the mouse and dog has provided the toxicology/pharmacokinetic information regarding toxicities and drug disturbances that were utilized in designing the administration and dose schedules in humans.

[17] = system: Lewis lung murine tumor; settings: mouse, in vivo, ip
[18] = system: MX-1 Human Breast Tumor; settings: mouse, in vivo, ip
[19] = Estimated comparable human intravenous dosages

O=P1(NCCCl)OCCCN1CCCl (stereo not shown) [Ifosfamide, ifosfamide]
Day 60 survivors/total ([1]; mouse, in vivo): 0/10 and 0/9 | Net log10 reduction in tumor burden after therapy ([1]; mouse, in vivo): 8 | Day 60 survivors/total ([2]; mouse, in vivo): 0/10 | % ILS [3]: 55% | Log kill total [3]: >4.5 | T-C (tumor growth delay) [3]: 18 days | Tumor-free survivors [3]: 7/10 | % ILS [4]: 55% | T-C [4]: 18 days | Tumor-free survivors [4]: 7/10 | Day 60 survivors/total ([5]; mouse, in vivo): 7/10 | Net log10 reduction in tumor burden after therapy ([5]; mouse, in vivo): 7 | Day 60 survivors/total ([6]; mouse, in vivo): 0/10 | Net log10 reduction in tumor burden after therapy ([6]; mouse, in vivo): 4 | Days to 2 Doublings ([7]; mouse, in vivo): 4.6 days and 4.9 days and 3.8 days and 4.0 days

O=P1(N(CCCl)CCCl)NCCCO1 (stereo not shown) [Cyclophosphamide, cyclophosphamide]
% ILS (dying mice only) ([1]; 200 mg/kg IP, day 2 only): +107% | Day 60 survivors/total ([1]; 200 mg/kg IP, day 2 only): 0/10 | Net log10 reduction in tumor burden after therapy ([1]; 200 mg/kg IP, day 2 only): 7 | % ILS (dying mice only) ([2]; 200 mg/kg IP, day 2 only): +57% | Day 60 survivors/total ([2]; 200 mg/kg IP, day 2 only): 0/10 | Net log10 reduction in tumor burden after therapy ([2]; 200 mg/kg IP, day 2 only): 4 | % ILS [3]: 68% | Log kill total [3]: >6.8 | T-C (tumor growth delay) [3]: 27 days | Tumor-free survivors [3]: 5/10 | % ILS [4]: 68% | T-C [4]: 27 days | Tumor-free survivors [4]: 5/10 | % ILS (dying mice only) ([5]; 175 mg/kg IP, day 1 only): +130% | Day 60 survivors/total ([5]; 175 mg/kg IP, day 1 only): 4/10 | Net log10 reduction in tumor burden after therapy ([5]; 175 mg/kg IP, day 1 only): 7 | % ILS (dying mice only) ([5]; 265 mg/kg IP, day 1 only): +280% | Day 60 survivors/total ([5]; 265 mg/kg IP, day 1 only): 7/10 | Net log10 reduction in tumor burden after therapy ([5]; 265 mg/kg IP, day 1 only): 7 | % ILS (dying mice only) ([6]; 175 mg/kg IP, day 1 only): +35% | Day 60 survivors/total ([6]; 175 mg/kg IP, day 1 only): 0/10 | Net log10 reduction in tumor burden after therapy ([6]; 175 mg/kg IP, day 1 only): 3 | % ILS (dying mice only) ([6]; 265 mg/kg IP, day 1 only): +35% | Day 60 survivors/total ([6]; 265 mg/kg IP, day 1 only): 0/10 | Net log10 reduction in tumor burden after therapy ([6]; 265 mg/kg IP, day 1 only): 3 | Days Delay (T-C) ([7]; 30 mg/kg IP, Q 1dx 4 day 7): 0.4 days | Days to 2 Doublings ([7]; 30 mg/kg IP, Q 1dx 4 day 7): 3.6 days | Days Delay (T-C) ([7]; 40 mg/kg IP, Q 1dx 4 day 7): 1.2 days | Days to 2 Doublings ([7]; 40 mg/kg IP, Q 1dx 4 day 7): 4.4 days | Days Delay (T-C) ([7]; 50 mg/kg IP, Q 1dx 4 day 7): 4.0 days | Days to 2 Doublings ([7]; 50 mg/kg IP, Q 1dx 4 day 7): 7.2 days | Days Delay (T-C) ([7]; 60 mg/kg IP, Q 1dx 4 day 7): 4.5 days | Days to 2 Doublings ([7]; 60 mg/kg IP, Q 1dx 4 day 7): 7.7 days | % ILS ([8]; 40 mg/kg/dose IV, Q1DX5): +121% | Median Day of Death ([8]; 40 mg/kg/dose IV, Q1DX5): 42.0 | Days Delay (T-C) ([9]; 60 mg/kg IP, Q 1dx 5 day 12): >40.5 days | Days to 2 Doublings ([9]; 60 mg/kg IP, Q 1dx 5 day 12): >48.0 days

O=P(O)(NCCCl)NCCCl [IPM, isophosphoramide mustard]
% ILS (dying mice only) ([1]; mouse, in vivo): +128% | Day 60 survivors/total ([1]; mouse, in vivo): 0/10 | Net log10 reduction in tumor burden after therapy ([1]; mouse, in vivo): 8 | % ILS (dying mice only) ([2]; mouse, in vivo): +114% | Day 60 survivors/total ([2]; mouse, in vivo): 1/10 | Net log10 reduction in tumor burden after therapy ([2]; mouse, in vivo): 7 | % ILS [3]: 34% | Log kill total [3]: >2.1 | T-C (tumor growth delay) [3]: 8.4 days | Tumor-free survivors [3]: 6/10 | % ILS [4]: 34% | Inhibition of B16 melanoma growth compared with CPA and Ifos [4]: slightly inferior to CPA but better than Ifos | T-C [4]: 8.4 days | Tumor-free survivors [4]: 6/10 | Day 60 survivors/total ([5]; mouse, in vivo): 0/9 and 1/10 | Day 60 survivors/total ([6]; mouse, in vivo): 0/10 | Net log10 reduction in tumor burden after therapy ([6]; mouse, in vivo): 7 | Days Delay (T-C) ([10]; 18 mg/kg IP daily): 1 days | Days To 2 doublings ([10]; 18 mg/kg IP daily): 10.3 days | Days Delay (T-C) ([10]; 27 mg/kg IP daily): 3.3 days | Days To 2 doublings ([10]; 27 mg/kg IP daily): 12.6 days | Days Delay (T-C) ([10]; 40 mg/kg IP daily): 6.1 days | Days To 2 doublings ([10]; 40 mg/kg IP daily): 15.4 days | Days Delay (T-C) ([7]; mouse, in vivo): 6.3 days and 5.2 days and 4.2 days | Days to 2 Doublings ([7]; mouse, in vivo): 9.5 days and 8.5 days and 7.4 days | % ILS ([8]; mouse, in vivo): +52% | Median Day of Death ([8]; mouse, in vivo): 29.0 | Days to 2 Doublings ([9]; mouse, in vivo): 26.5 days and 14.2 days | Cumulative Mortality, female [11]: 4/5 | Cumulative Mortality, male [11]: 1/5 | Cumulative Mortality, total ([11]; listed as IPM parent compound): 5 of 10 and 5/10 | oral LD50 ([12]; female rats): 2786 mg/kg | oral LD50 ([12]; male rats): 4443 mg/kg | oral LD50 range ([12]; oral, range over mice and rats): 1400 to 3500 mg/kg | oral LD50 ([12]; rats, both sexes combined): 3560 mg/kg | oral LD50 ([13]; female mice): 1962 mg/kg | oral LD50 ([13]; male mice): 1014 mg/kg | oral LD50 ([13]; mice, both sexes combined): 1432 mg/kg | single dose intravenous LD50 ([14]; female rats): 400 mg/kg | single dose intravenous LD50 ([14]; male rats): 567 mg/kg | single dose intravenous LD50 ([15]; female mice): 484 mg/kg | single dose intravenous LD50 ([15]; male mice): 929 mg/kg | treatment-related microscopic findings ([16]; 75 mg/kg, either sex): No obvious treatment-related microscopic findings | Sub-acute IV LD10 ([16]; Mouse): 119 mg/kg/day | dose with kidney tubular necrosis ([16]; female mice): ≥ 133 mg/kg | dose with severe bone marrow depletion ([16]; female mice): ≥ 133 mg/kg | intravenous LD10 ([16]; female mice): 125 mg/kg | intravenous LD50 ([16]; female mice): 132 mg/kg | dose with kidney tubular necrosis ([16]; male mice): ≥ 237 mg/kg | dose with severe bone marrow depletion ([16]; male mice): ≥ 178 mg/kg | intravenous LD10 ([16]; male mice): 168 mg/kg | intravenous LD50 ([16]; male mice): 176 mg/kg | intravenous LD10 ([16]; mice, combined sexes): 119 mg/kg | MTD Dosage [17]: 40.0 mg/kg/dose | T-C [17]: 12.5* days | MTD Dosage [18]: 40.0 mg/kg/dose | T-C [18]: 2.1* days | Sub-acute IV LD10 (Dog): 5 mg/kg/day | survival (dog, in vivo): (100% survival) | MTD (dog, in vivo, iv): 5 mg/kg/day | Comparable Human IV Dosage ([19]; estimated from dog sub-acute IV value): 100 mg/m^2/d | Comparable Human IV Dosage ([19]; estimated from mouse sub-acute IV LD10): 30 mg/m^2/d | corresponding safe starting dose in humans ([19]; for three days, from dog MTD): 100 mg/m^2 per day

Reference: US8664201B2 (priority 2008, dated 2014)
